Laboratory results from patent US8901305B2, “Aryl lactam kinase inhibitors” (Bristol-Myers Squibb Company, priority 2012, dated 2014).

Tested on: formalin paw test in mice
Assay: formalin paw test (pain response)
Assay type: in vivo
Method: AAK1 homozygous (−/−) and their wild-type (+/+) littermates were tested using the formalin paw test in order to assess their acute and tonic nociceptive responses. For these tests, Automatic Nociception Analyzers (purchased from the Ozaki lab at University of California, San Diego) were used. A metal band was placed around the left hind paw of each mouse 30 minutes prior to testing. After the 30-minute acclimation period, 20 μl of 5% formalin is subcutaneously injected in the dorsal surface of the left hind paw. Mice were individually housed in cylindrical chambers for 45 minutes. Fresh 5% formalin solution was prepared by diluting formaldehyde (Formalde-fresh 20%, Fisher Scientific, Fair Lawn, N.J.) with distilled water. Investigatory compounds were administered 30 minutes prior to formalin injection.
A computer recorded flinches per minute, total flinches for phase I (acute phase=first 8 minutes), and total flinches for phase II (tonic phase=time between minutes 20-40) through an electromagnetic field. See Yaksh T L, Ozaki G, McCumber D, Rathbun M, Svensson C, Malkmus S, Yaksh M C. An automated flinch detecting system for use in the formalin nociceptive bioassay. J Appl Physiol., 2001; 90:2386-402.
The same test was used to confirm that the administration of an AAK1 inhibitor can also affect pain response.
A compound of the disclosure was tested in this assay at different doses. Gabapentin and pregabalin were used as positive controls. Results are shown below in Table 2, wherein the effect of gabapentin at 200 mg/kg is considered a 100% response, the % response for the other compounds is relative to the 200 mg/kg dose of gabapentin, “sc” means subcutaneous administration; “po” means oral administration.

[1] = 50 mg/kg sc, relative to gabapentin 200 mg/kg = 100%

SMILES	Response [1] [%]	Response (200 mg/kg sc, considered a 100% response) [%]
CC(C)C[C@H](CN)CC(=O)O [Pregabalin, pregabalin]	90	
NCC1(CC(=O)O)CCCCC1 [Gabapentin, gabapentin]	60	100
